Reference: US7517884B2 (Kalypsys Inc., priority 1998, dated 2009)

Experiments:
[1] = biological target: T1, PPAR-alpha (UniProt Q07869); test: PPAR-alpha transactivation assay (GAL4 chimera, luciferase reporter) in CV-1 cells; format: cell-based, murine and human; conditions: GAL4-PPAR LBD chimera
T1 sequence (Q07869 1-468): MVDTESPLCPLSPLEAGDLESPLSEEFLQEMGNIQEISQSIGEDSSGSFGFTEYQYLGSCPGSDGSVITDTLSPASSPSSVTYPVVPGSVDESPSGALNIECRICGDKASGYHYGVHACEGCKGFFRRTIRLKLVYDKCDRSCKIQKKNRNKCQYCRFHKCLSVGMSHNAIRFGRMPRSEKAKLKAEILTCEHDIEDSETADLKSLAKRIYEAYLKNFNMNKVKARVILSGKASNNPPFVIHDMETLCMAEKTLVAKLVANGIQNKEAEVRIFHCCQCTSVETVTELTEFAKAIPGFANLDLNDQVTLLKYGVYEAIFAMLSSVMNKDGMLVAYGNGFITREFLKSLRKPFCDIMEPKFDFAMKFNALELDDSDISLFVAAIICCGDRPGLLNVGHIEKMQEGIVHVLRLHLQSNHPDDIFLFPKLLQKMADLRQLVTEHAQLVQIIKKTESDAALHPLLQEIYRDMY
How it was run: (§1)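 CV-1 cells transiently transfected with murine or human PPAR-alpha, -gamma or -delta ligand-binding domain fused to GAL4 DNA-binding domain plus a GAL4-site luciferase reporter. After replating in phenol-red-free DME with 5% delipidated calf serum, cells were exposed to compound 20-24 h; luciferase read-out gave EC50.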

[2] = biological target: T2, PPAR-delta (UniProt Q03181); test: PPAR-delta transactivation assay (GAL4 chimera, luciferase reporter) in CV-1 cells; format: cell-based, murine and human; conditions: GAL4-PPAR LBD chimera
T2 sequence (Q03181 1-441): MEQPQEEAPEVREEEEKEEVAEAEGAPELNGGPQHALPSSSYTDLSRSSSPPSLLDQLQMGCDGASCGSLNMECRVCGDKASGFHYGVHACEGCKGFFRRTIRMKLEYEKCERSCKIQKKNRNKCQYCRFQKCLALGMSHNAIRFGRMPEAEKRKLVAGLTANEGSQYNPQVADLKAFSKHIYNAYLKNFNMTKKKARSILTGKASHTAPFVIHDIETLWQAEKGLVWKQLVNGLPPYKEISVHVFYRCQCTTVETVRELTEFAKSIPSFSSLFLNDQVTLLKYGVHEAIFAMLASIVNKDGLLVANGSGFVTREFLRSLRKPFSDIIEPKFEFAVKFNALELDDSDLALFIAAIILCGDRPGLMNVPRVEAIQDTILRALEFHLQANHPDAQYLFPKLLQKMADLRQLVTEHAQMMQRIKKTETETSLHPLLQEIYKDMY
How it was run: as §1

[3] = biological target: T3, PPAR-gamma (UniProt P37231); test: PPAR-gamma transactivation assay (GAL4 chimera, luciferase reporter) in CV-1 cells; format: cell-based, murine and human; conditions: GAL4-PPAR LBD chimera
T3 sequence (P37231 1-505): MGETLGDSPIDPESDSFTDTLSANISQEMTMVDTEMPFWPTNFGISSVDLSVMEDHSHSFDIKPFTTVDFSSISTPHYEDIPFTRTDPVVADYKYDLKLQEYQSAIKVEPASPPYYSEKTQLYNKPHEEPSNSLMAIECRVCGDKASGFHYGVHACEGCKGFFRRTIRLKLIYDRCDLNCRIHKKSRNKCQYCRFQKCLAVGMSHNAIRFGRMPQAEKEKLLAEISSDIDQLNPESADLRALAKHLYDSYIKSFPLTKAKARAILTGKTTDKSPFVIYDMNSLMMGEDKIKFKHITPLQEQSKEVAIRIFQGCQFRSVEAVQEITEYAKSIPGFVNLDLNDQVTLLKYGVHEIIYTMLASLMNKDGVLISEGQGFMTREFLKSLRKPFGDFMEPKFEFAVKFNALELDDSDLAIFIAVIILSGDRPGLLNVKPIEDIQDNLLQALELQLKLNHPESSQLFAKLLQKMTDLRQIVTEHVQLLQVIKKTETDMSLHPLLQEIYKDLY
How it was run: as §1

[4] = tested on: Diet-Induced Obesity (DIO) in Mice; test: Model of Diet-Induced Obesity (DIO) in mice, dose ranging study; format: in vivo, C57B1/6j mice; conditions: HFD, 1.5 mg/kg BID
Excerpt: Evaluation of Pharmacological Efficacy of a Compound of the Invention in a Model of Diet-Induced Obesity (DIO) in Mice
Metabolic syndrome in humans is characterized by abdominal obesity, high triglycerides, impaired fasting glucose and hyperinsulinemia. In the DIO model, mice are fed high fat diet (HFD, Research diet D12492, Research Diet, NJ) diet (58% lard) for the entire period of the study. Compared to normal chow (NC, Harlan-Tekland #8604, WI) fed animals the HF fed mice develop several features of metabolic syndrome such as, hypertriglyceridemia, hyperinsulinemia and mild hyperglycemia, as early as two weeks, on this diet. […] This model was used to evaluate the pharmacological effects of a compound of the invention selected from the group consisting of Examples 1-141 (referred to for the purposes of this study as “Compound (I)”) in mitigating several features of HFD induced metabolic syndrome in rodents.
C57B1/6j mice (n=5) were fed ad libitum with either the HFD (58% fat) or NC (5%) diet for 3 weeks prior to start of experiment, and throughout the course of the experiment (45 days). Starting on Day 1, mice were dosed BID with either Compound (I)+vehicle, vehicle alone, or GW501516, a known PPARδ modulator in clinical development by Glaxo-Wellcome, for the entire period of the study. Animals were the assessed for body weight gain, food intake, triglyceride (TG), insulin, and glucose levels under fasting and postprandial (PP) conditions. Animals were weighed twice weekly in the morning to determine body weight gain. Plasma or serum was separated from whole blood (Sarstedt) and TG levels were assayed with a TG kit (Thermo Electron Corporation, TX). Plasma insulin levels were assayed using the ultrasensitive mouse Insulin ELISA immunoassay (American Laboratory Products Company). Total cholesterol, HDLc and LDLc was measured to evaluate pharmacological efficacy at various time points during the study and serum transaminases were measured to evaluate any potential toxicity of the compound. These measurements were performed with a chemistry analyzer at Labcorp of America, NC.

Compound	EC50 [1] [µM]	EC50 [2] [µM]	EC50 [3] [µM]	% change in body weight (d0 vs d40) [4] [%]	Insulin [4] [ng/mL]	TG [4] [mg/dL]
O=C(O)C1Cc2cccc(S(=O)(=O)N3C4CSCC3CN(c3ccc(OC(F)(F)F)cc3)C4)c2C1 (stereo not drawn) [Example 125, 4-(7-(4-(Trifluoromethoxy)phenyl)-3-thia-7,9-diazabicyclo|3.3.1|nonan-9-ylsulfonyl)-2,3-dihydro-1H-indene-2-carboxylic acid]	> 100	< 5	> 100	–	–	–
C[C@@H]1CN(c2ccc(Cl)cc2)C[C@H](C)N1S(=O)(=O)c1cccc2c1CC(C(=O)O)C2 (stereo partly drawn) [Example 126, 4-[4-(4-Chlorophenyl)-cis-2,6-dimethylpiperazin-1-ylsulfonyl]-2,3-dihydro-1H-indene-2-carboxylic acid]	> 100	< 5	> 100	–	–	–
C[C@@H]1CN(c2ccc(Cl)c(OC(F)(F)F)c2)C[C@H](C)N1S(=O)(=O)c1cccc2c1CC(C(=O)O)C2 (stereo partly drawn) [Example 131, 4-|4-(4-Chloro-3-trifluoromethoxyphenyl)-cis-2,6-dimethylpiperazine-1-ylsulfonyl|-2,3-dihydro-1H-indene-2-carboxylic acid]	> 100	< 5	> 100	–	–	–
C[C@@H]1CN(c2ccc(Cl)c(C(F)(F)F)c2)C[C@H](C)N1S(=O)(=O)c1cccc2c1CC(C(=O)O)C2 (stereo partly drawn) [Example 134]	> 100	< 5	> 100	–	–	–
CCc1ccc(N2C[C@@H](C)N(S(=O)(=O)c3cccc4c3CC(C(=O)O)C4)[C@@H](C)C2)cc1 (stereo partly drawn) [Example 136, 4-|4-(4-Ethylphenyl)-cis-2,6-dimethylpiperazin-1-ylsulfonyl|-2,3-dihydro-1H-indene-2-carboxylic acid]	> 100	< 5	> 100	–	–	–
Cc1cc(SCc2sc(-c3ccc(C(F)(F)F)cc3)nc2C)ccc1OCC(=O)O [GW516]	–	–	–	10.6	1.3 ± 0.3	268 ± 56

Continued, in another order:

EC50 [1] [µM]	EC50 [2] [µM]	EC50 [3] [µM]	Compound	% change in body weight (d0 vs d40) [4] [%]	Insulin [4] [ng/mL]	TG [4] [mg/dL]
> 100	< 5	> 100	C[C@@H]1CN(c2ccc(Cl)c(F)c2)C[C@H](C)N1S(=O)(=O)c1cccc2c1CC(C(=O)O)C2 (stereo partly drawn) [Example 132, 4-|4-(4-Chloro-3-fluorophenyl)-cis-2,6-dimethylpiperazin-1-ylsulfonyl|-2,3-dihydro-1H-indene-2-carboxylic acid]	–	–	–
> 100	< 5	> 100	COc1cc(N2C[C@@H](C)N(S(=O)(=O)c3cccc4c3CC(C(=O)O)C4)[C@@H](C)C2)ccc1Cl (stereo partly drawn) [Example 133, 4-|4-(4-Chloro-3-methoxyphenyl)-cis-2,6-dimethylpiperazine-1-ylsulfonyl|-2,3-dihydro-1H-indene-2-carboxylic acid]	–	–	–
> 100	< 5	> 100	Cc1cc(N2C[C@@H](C)N(S(=O)(=O)c3cccc4c3CC(C(=O)O)C4)[C@@H](C)C2)ccc1Cl (stereo partly drawn) [Example 135, 4-|4-(4-Chloro-3-methylphenyl)-cis-2,6-dimethylpiperazin-1-ylsulfonyl|-2,3-dihydro-1H-indene-2-carboxylic acid]	–	–	–
> 100	< 5	> 100	Cc1ccc(N2C[C@@H](C)N(S(=O)(=O)c3cccc4c3CC(C(=O)O)C4)[C@@H](C)C2)cc1C (stereo partly drawn) [Example 137, 4-|4-(3,4-Dimethylphenyl)-cis-2,6-dimethylpiperazin-1-ylsulfonyl|-2,3-dihydro-1H-indene-2-carboxylic acid]	–	–	–
